How the values were obtained:
HNDFs = assay: SA-β-gal senescence assay in HG-induced HNDFs; assay type: cell-based, human; conditions: ANM 10 μM or RES + HG, 72 h
Description: Next, the protective effects of antcins on HG-induced HNDF senescence are examined. In FIG. 2B, cells were incubated with ANA (10 μM), ANH (10 μM) and ANM (10 μM) in the presence of HG (30 mM) for 72 h. Cellular senescence is determined by SA-β-gal activity. […] After cells are co-incubated with HG and antcins (ANA, ANH and ANM) for 72 h, senescence is measured by SA-β-gal assay.
Therefore, in order to examine whether the ROS inhibitory effect may be extended to suppress HG-induced senescence, HG-induced senescenece eliminated by ANM is examined. In FIG. 4B, HNDFs are incubated with ANM (10 μM) or NAC (100 μM) in the presence or absence of HG (30 mM) for 72 h. Cellular senescence is determined by SA-β-gal assay. […] As is shown, cells are co-incubated with HG and ANM or NAC for 72 h.
Senescence-associated β-galactosidase (SA-β-gal) activity is determined in formaldehyde-fixed histochemical staining kit according to the manufacturer's instructions (Cell Signaling Technology, Danvers, Calif.). Briefly, cells are grown in 6-well plates at a density of 5×10^4 cells/well, and incubated with HG or test samples for 48 h (HUVECs) or 72 h (HNDFs). After incubation, cells are stained with SA-β-gal staining solution at pH 6.0 overnight and then the development of blue staining is observed and photographed under a bright-field microscope (Motic Electric Group, Xiamen, P.R. China).

[1] = test system: SIRT-1, SIRT-3 and SIRT-6; assay: RT-PCR/Q-PCR of SIRT genes in HNDFs; assay type: cell-based, human; conditions: RES, 72 h, no HG
Source text: As shown in the figures, to determine whether ANM regulates HNDF senescence through a SIRT-1-mediated pathway, expression levels of SIRT genes SIRT-1, SIRT-3 and SIRT-6 are is examined.
Total RNA is extracted and subjected to Q-PCR analysis to monitor SIRT-1, SIRT-3 and SIRT-6 expression. Relative mRNA levels are normalized by β-actin mRNA. Previous studies have shown that exposure of endothelial cells to HG rapidly decreases levels of expression of SIRT genes.
Total RNA is extracted from cultured HNDFs using Trizol Reagent (Thermo Fisher Scientific). Q-PCR analysis is performed using Applied Biosystems detection instruments and software. Forward and reverse primers (10 μM), and the working solution SYBR green, is used as a PCR master mix, under the following conditions: 96° C. for 3 minutes followed by 40 cycles at 96° C. for 1 minute, 50° C. for 30 seconds and 72° C. for 90 seconds. GAPDH is used as an internal standard to control for variability in amplification because of differences in starting mRNA concentrations. The copy number of each transcript is calculated as the relative copy number normalized by GAPDH copy number.

SIRT-1, SIRT-3, SIRT-6 = assay: Western blot of SIRT proteins and phos-SIRT-1 in HNDFs; assay type: cell-based, human; conditions: ANM or RES + HG, 72 h
Description: Total cell lysate is extracted and subjected to western blot analysis to monitor SIRT-1, SIRT-3, SIRT-6 protein levels.
The protein expression levels of SIRT-1, SIRT-6, p21^CIP1, SMP30, p53, FoxO and acetylation of p53 and FoxO1 are determined by western blot analysis.
To further understand the regulation of SIRT-1 by ANM, the effect of ANM on SIRT-1 activation and protein stability is examined under hyperglycemic conditions. In FIG. 7I, cells are incubated with JNK/SAPK or p38 MAPK inhibitors SP600125 (SP, 30 μM) and SB203580 (SB, 30 μM) in the presence of HG for 72 h. The protein expression levels of phos-SIRT-1 and SIRT-1 are determined by western blotting. Results are expressed as mean±S.E.M of three independent experiments. Statistical significance is set at ^ϕP<0.05 as compared to NG vs. HG and *P<0.05 as compared to HG vs. samples. Previous studies have shown that hyperphosphorylation of SIRT-1 at serine 47 (Ser47) is correlated with enhanced endothelial senescence. In addition, persistent activation of JNK1/2 by multiple factors including hyperglycemia induces extensive SIRT-1 proteasome degradation followed by phosphorylation at Ser47. […] Therefore, it is hypothesized that ANM-mediated suppression of JNK1/2 and p38 MAPK activation may have a functional role in the stability of SIRT-1 protein.
(§1) Cells are lysed by either RIPA lysis buffer or nuclear and cytoplasmic extraction reagents (Thermo Fisher Scientific). Protein concentrations are determined by Bio-Rad protein assay reagent (Bio-Rad Laboratories, Hercules, Calif.). Equal amounts of protein samples (60 μg) are separated by 7-12% SDS-PAGE and the separated proteins are transferred onto polyvinylidene […] (PVDC) membrane overnight. The transferred protein membranes are blocked with 5% non-fat dried milk for 30 min, followed by incubation with specific primary antibodies overnight, and either horseradish peroxidase-conjugated goat anti-rabbit or anti-mouse antibodies for 2 h. The blots are detected using VL Chemi-Smart 3000 (Viogene Biotek, Sunnyvale, Calif.) with the enhanced chemiluminescence (ECL) western blotting reagent (Millipore, Billerica, Mass.).

wild-type C. elegans = assay: C. elegans lifespan assay; assay type: in vivo, Caenorhabditis elegans; conditions: ANM 10 μM or RES 438 μM vs control
Description: It has been well documented that high glucose levels decrease the life span of C. elegans by increasing ROS formation and advance glycation end-product modification of mitochondrial proteins. Therefore, it is further investigated whether ANM has a protective effect against hyperglycemia-induced oxidative stress as well as anti-aging effects. Worms are incubated with high glucose (50 mM) with or without ANM […], and controlled for life span evaluation. In FIG. 8B, effect of ANM on the life span of C. elegans under hyperglycemic condition is examined. Age synchronized L1 larvae are transfected to NGM plates which contain HG (50 mM) with or without ANM (10 μM) and worms are developed to adulthood. The survival rate is scored everyday and is expressed as a percentage of survival. […] Results are expressed as mean±S.E.M of three independent experiments. Statistical significance is set at ^ϕP<0.05 as compared to control vs. HG, *P<0.05 as compared to HG vs. HG+sample and ̂P<0.05 as compared to control vs. samples.
Control worms are treated with 0.01% DMSO. All worms are kept 20° C. to develop adulthood. After 6 days, worms are transferred to plates containing glucose are applicable. Surviving and dead animals are counted daily (starting from the first day of adulthood) until all worms had died. […] Worms suffering from internal hatch (a defect in egg-laying) and those that crawled off the NGM plate are not included in the life-span assay. During the reproductive period, adult worms are transferred to fresh NGM plates every day during the progeny production period and then every other day thereafter. Life span assay result is obtained from three independent assays.

HO-1 and NQO-1 = assay: Western blot of HO-1 and NQO-1 in HUVECs; assay type: cell-based, human; conditions: ANM 10 μM or RES 5 μM + HG
Description: The intracellular ROS level is quantified by utilizing DCFH-DA assay. […] However, treatment of HUVECs with ANM resulted reduced ROS levels (6.1-fold), compared with HUVECs in HG that are not treated with ANM. In addition, in FIG. 9G, western blot analysis is performed to determine the protein expression levels of HO-1 and NQO-1.
as §1

Structure (SMILES): Oc1ccc(C=Cc2cc(O)cc(O)c2)cc1 [RES, resveratrol, reference compound]
- SA-β-gal activity, SIRT-1 siRNA transfected cells (HNDFs): remains partially elevated
- SIRT-6 level (RT-PCR) [1]: remarkable increase
- HG-induced SIRT-1 phosphorylation at Ser47 (SIRT-1, SIRT-3, SIRT-6): significantly attenuates
- life span of C. elegans under normal condition (wild-type C. elegans): highly comparable
- HO-1 expression in HUVECs in HG (HO-1 and NQO-1): significantly increase
